Reference: publication PMC3781056, “New Pyrazolopyrimidine Inhibitors of Protein Kinase D as Potent Anticancer Agents for Prostate Cancer Cells” (PLoS ONE, 2013)
Like-named read-outs stand apart in the source and are kept apart here.

Key:
DU145 cells = experiment: Matrigel invasion assay; assay type: cell-based; settings: Homo sapiens, DU-145, 20 h, read-out: inhibition of cell invasion compared with control
Procedure: A.1-NA- PP1 blocked prostate cancer cell migration. PC3 cells were grown to confluence in 6-well plates. Monolayer was wounded and imaged immediately (0 h). […] Percentage wound healing was calculated as the percent of healed wound area as compared to the original wound. […] After 20 h, noninvasive cells were removed and invasive cells were fixed in 100% methanol, stained in 0.4% hematoxylin solution, and photographed. The number of cells that invaded the Matrigel matrix was determined by cell counts in 6 fields relative to the number of cells that migrated through the control insert. Percentage invasion was calculated as the percent of the cells invaded through Matrigel inserts vs. the total cells migrated through the control inserts. C. […] DU145 cells were infected with null, PKD1, and PKD3 adenoviruses (Adv-null, Adv-PKD1, and Adv-PKD3) at 100 MOI. […]
DU145 cells (4.0×10^4 cells/ml) in RPMI containing 0.1% fetal bovine serum (FBS) were seeded into the top chamber of BioCoat control inserts (pore size 8 µm) or BioCoat Matrigel invasion inserts with Matrigel-coated filters (BD Pharmingen). […] After staining, cells were counted under a microscope (200× magnification). The percentage invasion was determined by cell counts in […] of the number of cells that invaded the Matrigel matrix relative to the number of cells that migrated through the control insert.

PC3 cells = experiment: MTT assay; assay type: cell-based
Procedure: PC3 cells were plated in triplicates in 24-well plates. Cells were allowed to attach overnight. […] Cells were counted daily for a total of 5 days. Fresh media and inhibitor were added every 2 days. The means of triplicate determinations were plotted over time. The experiment was repeated twice and results from one representative experiment are shown. […] PC3 cells were seeded into 96-well plates (3000 cells/well) and were then incubated in media containing 0.3–100 µM inhibitors for 72 h. MTT solution was added to each well and incubated for 4 h. Optical density was read at 570 nm to determine cell viability. The IC50 was determined as the mean of two independent experiments for each compound. C. […] Cell cycle distribution was determined by flow cytometry after propidium iodide labeling of fixed cells. Statistical significance was determined by unpaired t-test and is indicated. **, p<0.01; ***, p<0.001. […] The label 1-NA-PP1 is taken from panels A and C, where it is the only substance named in the picture.
PC3 cells were seeded into 96-well plates (3000 cells/well) and allowed to attach overnight. Cells were then incubated in media containing […] inhibitors for 72 h. […] The plate was mix by shaking for 5 min and the optical density was determined at 570 nm.

[1] = test system: PC3 prostate cancer cells; experiment: Cell proliferation assay (cell counts); assay type: cell-based; settings: 30 µM, starting at day 2 to day 6
Procedure: PKD has emerged as a promising therapeutic target for cancer. […] Cell proliferation was determined by treating the cells at 30 µM concentration of agent, and then cell number was counted for six consecutive days in the presence and absence of inhibitor.
PC3 cells were plated in triplicates in 24-well plates. Cells were allowed to attach overnight. […] Cells were counted daily for a total of 5 days. Fresh media and inhibitor were added every 2 days. The means of triplicate determinations were plotted over time. The experiment was repeated twice and results from one representative experiment are shown. […] PC3 cells were seeded into 96-well plates (3000 cells/well) and were then incubated in media containing 0.3–100 µM inhibitors for 72 h. MTT solution was added to each well and incubated for 4 h. Optical density was read at 570 nm to determine cell viability. The IC50 was determined as the mean of two independent experiments for each compound. C. […] Cell cycle distribution was determined by flow cytometry after propidium iodide labeling of fixed cells. Statistical significance was determined by unpaired t-test and is indicated. **, p<0.01; ***, p<0.001. […]
Proliferation of PC3 cells was measured by counting the number of viable cells upon trypan blue staining as previously described. […] The labeled cells were analyzed using a FACSCalibur flow cytometer (BD Biosciences).

PKD isoforms = experiment: Radiometric PKD kinase assay, summary statement for PKD isoforms; assay type: biochemical, human; settings: approximate, all PKD isoforms; read-out: concentration that blocked 50% of PKD activity
Procedure: Recombinant human PKD1, 2, or 3 proteins were incubated in a mixture containing a peptide substrate derived from a PKD substrate, HDAC-5, and 10 different concentrations of the two compounds.

## CC(C)(C)n1nc(-c2cccc3ccccc23)c2c(N)ncnc21 [Compound 1-NA-PP1, 1-(t-Butyl)-3-(naphthalen-1-yl)-1H-pyrazolo[3,4-d]pyrimidin-4-amine]
DU145 cells
  inhibition at 30 µM: > 60%
PC3 cells; Homo sapiens, PC-3, 72 h, read-out: IC50 for cell death (MTT), PC3 cells, 72 h
  IC50: 23.3 ± 5.7 µM
PC3 cells; read-out: IC50 for cell death (MTT), PC3 cells, 72 h
  IC50: ~20 µM
[1]
  effect on PC3 cell proliferation (cell counts): drastic growth arrest
PKD isoforms
  IC50: ~0.1 µM
